# Laboratory results as given in patent US9181275B2, “Mercaptoamidine derivatives and methods of use” (AbbVie Inc., priority 2011, dated 2015).
# How the values were obtained:
# [1] = molecular target: native H3 receptors from rat cerebral cortices (Rattus norvegicus (Rat), UniProt Q9QYN8); test: H3 receptor competition binding with [3H]-N-α-methylhistamine, rat cerebral cortex membranes; settings: [3H]-N-α-methylhistamine competition binding
# [2] = test system: locomotor stimulation induced by amphetamine; settings: animals; Clapham J., et al. 1994; cited from earlier work
# Sequence of native H3 receptors from rat cerebral cortices (Q9QYN8 whole entry): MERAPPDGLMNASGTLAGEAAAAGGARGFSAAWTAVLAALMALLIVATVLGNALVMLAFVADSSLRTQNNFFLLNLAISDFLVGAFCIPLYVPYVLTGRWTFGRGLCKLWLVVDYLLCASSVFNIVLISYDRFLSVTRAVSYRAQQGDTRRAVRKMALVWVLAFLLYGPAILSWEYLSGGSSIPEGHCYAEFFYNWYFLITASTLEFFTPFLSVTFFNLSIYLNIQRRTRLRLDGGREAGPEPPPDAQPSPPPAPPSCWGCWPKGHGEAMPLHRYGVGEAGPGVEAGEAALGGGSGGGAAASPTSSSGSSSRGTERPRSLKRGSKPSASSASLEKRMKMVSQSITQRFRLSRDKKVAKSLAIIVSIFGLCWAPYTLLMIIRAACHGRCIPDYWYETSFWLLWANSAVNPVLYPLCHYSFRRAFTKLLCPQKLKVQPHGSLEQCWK
Ki [1] [nM],rat cortex (pKi) [1],SMILES,effect on amphetamine-induced locomotor stimulation [2]
0.05,10.3,"CC1=C(c2ccc(OCCCN3CCCCC3)cc2)SC2=NCc3ccccc3CN21 [Example 2, 3-methyl-2-[4-(3-piperidin-1-ylpropoxy)phenyl]-5,10-dihydro[1,3]thiazolo[3,2-b][2,4]benzodiazepine]",–
0.02,10.7,"CC1=C(c2ccc(OCCCN3CCC[C@H]3C)cc2)SC2=NCc3ccccc3CN21 [Example 3, 3-methyl-2-(4-{3-[(2R)-2-methylpyrrolidin-1-yl]propoxy}phenyl)-5,10-dihydro[1,3]thiazolo[3,2-b][2,4]benzodiazepine]",–
0.324,9.49,"CC1=C(c2ccc(OCCCN3CCOCC3)cc2)SC2=NCc3ccccc3CN21 [Example 4, 3-methyl-2-[4-(3-morpholin-4-ylpropoxy)phenyl]-5,10-dihydro[1,3]thiazolo[3,2-b][2,4]benzodiazepine]",–
–,–,S=C(NC1CCCCC1)N1CCC(c2cnc[nH]2)CC1 [thioperamide],suppresses the locomotor stimulation induced by amphetamine
